Here are results for two compounds from patent US20240024279A1, “METHODS FOR REDUCING THE WEIGHT LOSS OR INCREASING THE WEIGHT OF A FELINE IN NEED THEREOF” (INCREVET, INC., priority 2019, published 2024).

The conditions of series [1]: most species; cited from earlier work.
Series [2] has as its system experimental diabetes in dogs. The settings on record: pancreatectomized animals in full glycosuria; cited from earlier work.
For series [3], the system named is experimental diabetes in cats. To be noted: cats with experimental diabetes, subcutaneous injection of a suspension in olive oil; cited from earlier work.
The test system of series [4] is healthy purpose-bred cats. In words: Urinary glucose excretion in healthy purpose-bred cats after once-daily oral velagliflozin capsules for three days. To be noted: gelatin capsules once a day for three days, urine. The series is classed as in vivo, cat. The method, then:
Velagliflozin (2-(4-cyclopropylbenzyl)-4-((2S,3R,4R,5S,6R)-3,4,5-trihydroxy-6-(hydroxymethyl)tetrahydro-2H-pyran-2-yl)benzonitrile, CAS number 946525-65-1; Compound 1) can be prepared by a variety of means, including as described in US2015/0164856A1 and is commercially available, for example as catalog number HY-109018 from MedChemExpress. Velagliflozin formulated in gelatin capsules was administered to healthy purpose-bred cats once a day for three days and the urinary glucose excretion recorded over the three consecutive 24-hour periods following dosing. Velagliflozin was administered at three dose levels: 1 mg, 3 mg and 10 mg per cat per day. The mean daily glucose excretion over three days was 2527 mg, 3601 mg and 5256 mg for mean dosages of 0.318 mg/kg, 0.953 mg/kg and 3.071 mg/kg, respectively.

In series [5] the test system is obese cats. The settings on record: velagliflozin group, 1 mg/kg in gelatin capsules, cited from earlier work.
Series [6] has as its system client-owned cats diagnosed with diabetes mellitus. In words: Field effectiveness study in client-owned cats with diabetes mellitus. To be noted: diabetic cats, oral once daily, day 0 to day 56, low-carbohydrate diet. Format: in vivo, cat. The method, then:
In a field effectiveness study, client-owned cats diagnosed with diabetes mellitus based on: i) two separate fasting (>6 h) blood glucose measurements >250 mg dL^−1; ii) glucosuria; iii) fructosamine >25% above the upper limit of normal for the testing laboratory, and iv) one or more of the following: polyuria/polydipsia, polyphagia and/or weight loss (documented in the cat's medical records) can be enrolled. Cats with suspected diabetes mellitus can be evaluated during visit 1 (within 7 days prior to day 0). Eligible cats can be enrolled during visit 2 (day 0) and management can be initiated using velagliflozin administered orally once daily. Cats can be prescribed a low-carbohydrate diet. Cats would return to the clinic for evaluation of glycemic control during visits 3 (day 14±3), 4 (day 28±3), and 5 (day 56±3). […] A cat can be brought back to the clinic at any time for unscheduled visits if such visits are determined to be necessary by the owner or investigator. Eight-hour blood glucose curves (blood samples collected every 2 h±15 min for 8 h) can be conducted at every visit starting with visit 2 (day 0) and blood glucose can be measured using an AlphaTRAK 2 glucometer (Abbott Laboratories). […] A central laboratory would be used to evaluate all clinical pathology samples (blood, serum, and urine) that are not analyzed in the clinic for blood glucose curves. […]

Entries after “also recorded” stand apart in the source; their conditions may differ.

Take `O=C(CCc1ccc(O)cc1)c1c(O)cc(O)cc1O[C@@H]1O[C@H](CO)[C@@H](O)[C@H](O)[C@H]1O` [phlorizin]: the half-life result in series [1] is “short half-life”. Also, the effect on hyperglycemia entry in series [2] was “the hyperglycemia disappears”; in series [3], “dramatic reduction of hyperglycemia”.

Regarding `N#Cc1ccc([C@@H]2O[C@H](CO)[C@@H](O)[C@H](O)[C@H]2O)cc1Cc1ccc(C2CC2)cc1` [Velagliflozin, 2-(4-cyclopropylbenzyl)-4-((2S,3R,4R,5S,6R)-3,4,5-trihydroxy-6-(hydroxymethyl)tetrahydro-2H-pyran-2-yl)benzonitrile], the “mean daily glucose excretion over three days” value in series [4] (1 mg per cat per day, mean dosage 0.318 mg/kg) worked out at 2527 mg. Also, the “mean daily glucose excretion over three days” value in series [4] (3 mg per cat per day, mean dosage 0.953 mg/kg) is recorded as 3601 mg. In addition, in series [4] (10 mg per cat per day, mean dosage 3.071 mg/kg), the “mean daily glucose excretion over three days” value stood at 5256 mg. In series [5] (after the course of treatment), the “body weight at end of treatment” value is 7.0 ± 1.4 kg and the “food intake at end of treatment” value is 58 ± 11 g. In series [5] (before treatment), the “body weight at start of treatment” value is 7.2 ± 1.5 kg and the “food intake at start of treatment” value was 57 ± 8 g. Also, in series [6], the body weight change result was “Weight gain and reduction in weight loss; also recorded: increase the average weight of a cat or reduce the weight loss of a cat”; the “owner-evaluated clinical signs (polydipsia, polyphagia, polyuria)” value is “improvement in polydipsia, polyphagia and polyuria”.
